Source: ChEMBL document CHEMBL4265965, “Dichloroacetophenones targeting at pyruvate dehydrogenase kinase 1 with improved selectivity and antiproliferative activity: Synthesis and structure-activity relationships” (Bioorg Med Chem Lett, 2018)
Activity calls are given as the source filed them. No cut-off for these calls is given here.

How the values were obtained:
A549 [1] = test: Antiproliferative activity against human A549 cells assessed as inhibition of cell proliferation at 6 uM after 72 hrs by MTT assay relative to control; format: functional; details: A549, 72 h
NCI-H1975 [2] = test: Antiproliferative activity against human NCI-H1975 cells assessed as inhibition of cell proliferation at 2 uM after 72 hrs by MTT assay relative to control; format: functional; details: NCI-H1975, 72 h
NCI-H1650 [3] = test: Antiproliferative activity against human NCI-H1650 cells assessed as inhibition of cell proliferation at 2 uM after 72 hrs by MTT assay relative to control; format: functional; details: NCI-H1650, 72 h
NCI-H1650 [4] = test: Antiproliferative activity against human NCI-H1650 cells assessed as inhibition of cell proliferation at 12 uM after 72 hrs by MTT assay relative to control; format: functional; details: NCI-H1650, 72 h
NCI-H1975 [5] = test: Antiproliferative activity against human NCI-H1975 cells assessed as inhibition of cell proliferation after 72 hrs by MTT assay; format: functional, cell-based; details: NCI-H1975, 72 h
[6] = molecular target: T1, [Pyruvate dehydrogenase (acetyl-transferring)] kinase isozyme 1, mitochondrial (Homo sapiens, UniProt Q15118); test: Inhibition of PDK1 in human NCI-H1975 cells assessed as reduction in pyruvate dehydrogenase phosphorylation at 10 uM after 24 hrs by Western blot analysis; format: cell-based
A549 [7] = test: Antiproliferative activity against human A549 cells assessed as inhibition of cell proliferation at 12 uM after 72 hrs by MTT assay relative to control; format: functional; details: A549, 72 h
NCI-H1975 [8] = test: Antiproliferative activity against human NCI-H1975 cells assessed as inhibition of cell proliferation at 12 uM after 72 hrs by MTT assay relative to control; format: functional; details: NCI-H1975, 72 h
NCI-H1975 [9] = test: Antiproliferative activity against human NCI-H1975 cells assessed as inhibition of cell proliferation at 6 uM after 72 hrs by MTT assay relative to control; format: functional; details: NCI-H1975, 72 h
[10] = molecular target: T1, [Pyruvate dehydrogenase (acetyl-transferring)] kinase isozyme 1, mitochondrial; test: Inhibition of recombinant human N-terminal His6/Sumo-tagged PDK1 (29 to 436 residues) expressed in Escherichia coli BL21 at 1 uM by kinase-glo luminescence assay relative to control
NCI-H1650 [11] = test: Antiproliferative activity against human NCI-H1650 cells assessed as inhibition of cell proliferation at 6 uM after 72 hrs by MTT assay relative to control; format: functional; details: NCI-H1650, 72 h
A549 [12] = test: Antiproliferative activity against human A549 cells assessed as inhibition of cell proliferation at 2 uM after 72 hrs by MTT assay relative to control; format: functional; details: A549, 72 h
Sus scrofa [13] = species: Sus scrofa; test: Inhibition of porcine PDK1 assessed as activation of pyruvate dehydrogenase complex at 80 uM measured after 3 mins relative to control
[14] = molecular target: T1, [Pyruvate dehydrogenase (acetyl-transferring)] kinase isozyme 1, mitochondrial; test: Inhibition of PDK1 in human NCI-H1975 cells assessed as switch of pyruvate metabolism from lactate production to oxidative phosphorylation by measuring decrease in extracellular acidification rate at 20 uM pretreated for 4 hrs followed by 2DG addition for 1 hr measured for 16 mins; format: cell-based
[15] = molecular target: T1, [Pyruvate dehydrogenase (acetyl-transferring)] kinase isozyme 1, mitochondrial; test: Inhibition of PDK1 in human NCI-H1975 cells assessed as switch of pyruvate metabolism from lactate production to oxidative phosphorylation by measuring decrease in extracellular acidification rate at 20 uM pretreated for 4 hrs followed by oligomycin addition for 1 hr measured for 16 mins; format: cell-based
[16] = molecular target: RAC-alpha serine/threonine-protein kinase (Homo sapiens, UniProt P31749); test: Inhibition of AKT phosphorylation in human NCI-H1975 cells at 10 uM after 24 hrs by Western blot analysis; format: cell-based; details: nci-h1975, 24 h
[17] = molecular target: T1, [Pyruvate dehydrogenase (acetyl-transferring)] kinase isozyme 1, mitochondrial; test: Inhibition of PDK1 in human NCI-H1975 cells assessed as switch of pyruvate metabolism from lactate production to oxidative phosphorylation by measuring increase in basal oxygen consumption rate at 20 uM incubated for 4 hrs measured for 16 mins; format: cell-based
[18] = molecular target: Epidermal growth factor receptor (Homo sapiens, UniProt P00533); test: Inhibition of EGFR phosphorylation in human NCI-H1975 cells at 10 uM after 24 hrs by Western blot analysis; format: cell-based; details: nci-h1975, 24 h
[19] = Inhibition of ERK phosphorylation in human NCI-H1975 cells at 10 uM after 24 hrs by Western blot analysis; format: cell-based; details: nci-h1975, 24 h
[20] = molecular target: T1, [Pyruvate dehydrogenase (acetyl-transferring)] kinase isozyme 1, mitochondrial; test: Inhibition of PDK1 in human NCI-H1975 cells assessed as switch of pyruvate metabolism from lactate production to oxidative phosphorylation by measuring increase in basal oxygen consumption rate at 20 uM incubated for 4 hrs followed by oligomycin addition for 1 hr measured for 16 mins; format: cell-based
[21] = molecular target: T1, [Pyruvate dehydrogenase (acetyl-transferring)] kinase isozyme 1, mitochondrial; test: Inhibition of PDK1 in human NCI-H1975 cells assessed as switch of pyruvate metabolism from lactate production to oxidative phosphorylation by measuring increase in basal oxygen consumption rate at 20 uM incubated for 4 hrs followed by FCCP addition for 1 hr measured for 16 mins; format: cell-based
[22] = molecular target: T1, [Pyruvate dehydrogenase (acetyl-transferring)] kinase isozyme 1, mitochondrial; test: Inhibition of PDK1 in human NCI-H1975 cells assessed as switch of pyruvate metabolism from lactate production to oxidative phosphorylation by measuring decrease in extracellular acidification rate at 20 uM pretreated for 4 hrs followed by glucose addition for 1 hr measured for 16 mins; format: cell-based
[23] = molecular target: T1, [Pyruvate dehydrogenase (acetyl-transferring)] kinase isozyme 1, mitochondrial; test: Inhibition of PDK1 in human NCI-H1975 cells assessed as switch of pyruvate metabolism from lactate production to oxidative phosphorylation by measuring increase in basal oxygen consumption rate at 20 uM incubated for 4 hrs followed by antimycinA addition for 1 hr measured for 16 mins; format: cell-based
Sus scrofa [24] = species: Sus scrofa; test: Inhibition of porcine PDK1 assessed as activation of pyruvate dehydrogenase complex at 1 uM measured after 3 mins
[25] = molecular target: T1, [Pyruvate dehydrogenase (acetyl-transferring)] kinase isozyme 1, mitochondrial; test: Binding affinity to recombinant human N-terminal His6/Sumo-tagged PDK1 (29 to 436 residues) expressed in Escherichia coli BL21
[26] = molecular target: T1, [Pyruvate dehydrogenase (acetyl-transferring)] kinase isozyme 1, mitochondrial; test: Inhibition of PDK1 in human NCI-H1975 cells assessed as switch of pyruvate metabolism from lactate production to oxidative phosphorylation by measuring increase in basal oxygen consumption rate at 10 uM incubated for 4 hrs followed by FCCP addition for 1 hr measured for 16 mins; format: cell-based
[27] = molecular target: T1, [Pyruvate dehydrogenase (acetyl-transferring)] kinase isozyme 1, mitochondrial; test: Inhibition of PDK1 in human NCI-H1975 cells assessed as switch of pyruvate metabolism from lactate production to oxidative phosphorylation by measuring increase in basal oxygen consumption rate at 10 uM incubated for 4 hrs measured for 16 mins; format: cell-based
[28] = molecular target: T1, [Pyruvate dehydrogenase (acetyl-transferring)] kinase isozyme 1, mitochondrial; test: Inhibition of PDK1 in human NCI-H1975 cells assessed as switch of pyruvate metabolism from lactate production to oxidative phosphorylation by measuring decrease in extracellular acidification rate at 10 uM pretreated for 4 hrs followed by glucose addition for 1 hr measured for 16 mins; format: cell-based
[29] = molecular target: T1, [Pyruvate dehydrogenase (acetyl-transferring)] kinase isozyme 1, mitochondrial; test: Inhibition of PDK1 in human NCI-H1975 cells assessed as switch of pyruvate metabolism from lactate production to oxidative phosphorylation by measuring increase in basal oxygen consumption rate at 10 uM incubated for 4 hrs followed by antimycinA addition for 1 hr measured for 16 mins; format: cell-based
[30] = molecular target: T1, [Pyruvate dehydrogenase (acetyl-transferring)] kinase isozyme 1, mitochondrial; test: Inhibition of PDK1 in human NCI-H1975 cells assessed as switch of pyruvate metabolism from lactate production to oxidative phosphorylation by measuring decrease in extracellular acidification rate at 10 uM pretreated for 4 hrs followed by 2DG addition for 1 hr measured for 16 mins; format: cell-based
[31] = molecular target: T1, [Pyruvate dehydrogenase (acetyl-transferring)] kinase isozyme 1, mitochondrial; test: Inhibition of PDK1 in human NCI-H1975 cells assessed as switch of pyruvate metabolism from lactate production to oxidative phosphorylation by measuring increase in basal oxygen consumption rate at 10 uM incubated for 4 hrs followed by oligomycin addition for 1 hr measured for 16 mins; format: cell-based
[32] = molecular target: T1, [Pyruvate dehydrogenase (acetyl-transferring)] kinase isozyme 1, mitochondrial; test: Inhibition of PDK1 in human NCI-H1975 cells assessed as switch of pyruvate metabolism from lactate production to oxidative phosphorylation by measuring decrease in extracellular acidification rate at 10 uM pretreated for 4 hrs followed by oligomycin addition for 1 hr measured for 16 mins; format: cell-based

Chain of Epidermal growth factor receptor (P00533 whole entry): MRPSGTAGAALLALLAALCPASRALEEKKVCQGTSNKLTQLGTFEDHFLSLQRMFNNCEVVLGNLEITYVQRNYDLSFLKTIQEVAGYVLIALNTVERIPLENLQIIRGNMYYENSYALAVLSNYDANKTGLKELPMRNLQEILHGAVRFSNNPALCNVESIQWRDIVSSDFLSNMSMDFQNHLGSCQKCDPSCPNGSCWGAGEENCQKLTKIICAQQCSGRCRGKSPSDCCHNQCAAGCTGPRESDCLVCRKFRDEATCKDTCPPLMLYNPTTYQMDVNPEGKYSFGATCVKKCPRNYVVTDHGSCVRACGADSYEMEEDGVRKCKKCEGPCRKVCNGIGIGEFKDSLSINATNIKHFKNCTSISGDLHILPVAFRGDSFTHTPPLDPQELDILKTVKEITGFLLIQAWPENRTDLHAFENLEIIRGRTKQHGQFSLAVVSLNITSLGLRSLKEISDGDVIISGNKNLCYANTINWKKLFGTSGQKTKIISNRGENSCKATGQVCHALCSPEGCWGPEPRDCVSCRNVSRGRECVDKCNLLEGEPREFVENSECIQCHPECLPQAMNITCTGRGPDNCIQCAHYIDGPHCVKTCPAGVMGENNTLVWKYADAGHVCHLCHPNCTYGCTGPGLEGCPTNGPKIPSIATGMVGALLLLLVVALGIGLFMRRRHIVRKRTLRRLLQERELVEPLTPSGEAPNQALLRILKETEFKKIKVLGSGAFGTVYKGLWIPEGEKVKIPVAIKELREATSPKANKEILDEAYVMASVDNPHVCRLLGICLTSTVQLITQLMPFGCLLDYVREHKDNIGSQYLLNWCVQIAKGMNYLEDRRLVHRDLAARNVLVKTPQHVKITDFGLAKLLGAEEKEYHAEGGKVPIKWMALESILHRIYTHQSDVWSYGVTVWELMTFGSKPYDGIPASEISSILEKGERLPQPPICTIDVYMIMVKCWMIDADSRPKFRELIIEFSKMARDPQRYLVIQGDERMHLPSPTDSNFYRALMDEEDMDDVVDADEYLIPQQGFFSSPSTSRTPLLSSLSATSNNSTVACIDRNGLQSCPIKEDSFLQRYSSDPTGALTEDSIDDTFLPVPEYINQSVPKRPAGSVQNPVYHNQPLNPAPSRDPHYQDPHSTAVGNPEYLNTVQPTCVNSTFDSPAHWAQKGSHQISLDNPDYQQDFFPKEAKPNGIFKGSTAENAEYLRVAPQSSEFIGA
Chain of RAC-alpha serine/threonine-protein kinase (P31749 whole entry): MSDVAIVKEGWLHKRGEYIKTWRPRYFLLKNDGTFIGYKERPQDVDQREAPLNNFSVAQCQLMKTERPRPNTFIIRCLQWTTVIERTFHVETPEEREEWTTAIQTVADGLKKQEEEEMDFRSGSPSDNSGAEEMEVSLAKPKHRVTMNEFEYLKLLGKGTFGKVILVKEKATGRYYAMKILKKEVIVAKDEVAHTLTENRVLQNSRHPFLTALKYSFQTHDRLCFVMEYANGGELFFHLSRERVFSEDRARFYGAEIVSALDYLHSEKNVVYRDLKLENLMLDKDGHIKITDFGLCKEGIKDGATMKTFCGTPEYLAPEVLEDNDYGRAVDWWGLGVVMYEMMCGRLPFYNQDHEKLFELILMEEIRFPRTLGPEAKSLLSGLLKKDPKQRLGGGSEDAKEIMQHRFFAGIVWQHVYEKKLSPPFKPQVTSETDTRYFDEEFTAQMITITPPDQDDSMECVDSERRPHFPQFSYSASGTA
T1 sequence (Q15118 whole entry): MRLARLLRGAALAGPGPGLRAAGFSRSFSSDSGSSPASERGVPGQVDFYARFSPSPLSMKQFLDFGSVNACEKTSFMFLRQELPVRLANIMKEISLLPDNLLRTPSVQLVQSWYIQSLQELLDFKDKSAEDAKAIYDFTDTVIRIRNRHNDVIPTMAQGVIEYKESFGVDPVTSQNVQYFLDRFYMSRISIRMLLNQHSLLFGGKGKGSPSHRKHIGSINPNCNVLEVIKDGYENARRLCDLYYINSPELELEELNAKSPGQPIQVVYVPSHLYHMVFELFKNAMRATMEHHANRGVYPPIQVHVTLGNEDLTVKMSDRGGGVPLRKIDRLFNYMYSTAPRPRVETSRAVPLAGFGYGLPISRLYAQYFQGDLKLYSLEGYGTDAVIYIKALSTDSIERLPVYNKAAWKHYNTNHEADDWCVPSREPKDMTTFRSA

SMILES	inhibition at 6 µM (A549 [1]) [%]	inhibition at 2 µM (NCI-H1975 [2]) [%]	inhibition at 2 µM (NCI-H1650 [3]) [%]	inhibition at 12 µM (NCI-H1650 [4]) [%]	IC50 (NCI-H1975 [5]) [nM]	inhibition [6]	inhibition at 12 µM (A549 [7]) [%]	inhibition at 12 µM (NCI-H1975 [8]) [%]	inhibition at 6 µM (NCI-H1975 [9]) [%]	inhibition [10]	inhibition at 6 µM (NCI-H1650 [11]) [%]	inhibition at 2 µM (A549 [12]) [%]	inhibition (INH) [16]	inhibition (INH) [18]	inhibition (INH) [19]	further results
O=C(c1ccc(-c2ccccc2)cc1)C(Cl)Cl	75.9	56.3	42.2	96.4	2000	Active	91.2	99.4	90.3	19.7 to 67.9%	79.2	22.5				
O=C(c1ccccc1)C(Cl)Cl	28.5	13.2	15.3	47.9	7900	Active	54.4	83.7	54.3	inactive	31.3	9.2	Active	Active	Active	inhibition (Sus scrofa [13]): 36.6%; inhibition [14]: Active; inhibition [15]: inactive; inhibition [17]: Active; inhibition [20]: Active; inhibition [21]: Active; inhibition [22]: inactive; inhibition [23]: inactive; inhibition (Sus scrofa [24]): inactive
CCc1ccc(C(=O)C(Cl)Cl)cc1[N+](=O)[O-]	71.4	57	35.6	100	1750		93.7	98.9	93.2	66.6%	79.3	20.2	Not Active	Not Active	Not Active	Kd [25]: 1290 nM; inhibition [26]: Active; inhibition [27]: Active; inhibition [28]: Active; inhibition [29]: inactive; inhibition [30]: Active; inhibition [31]: Active; inhibition [32]: Active
